Measurements published in article PMC7158045 (BMC Plant Biology, 2020).

What was measured:
Experiment in all cases: biochemical
[1] = target: T1, ZmDRIK1 (DROUGHT RESPONSIVE INACTIVE KINASE 1), kinase domain (Zea mays, UniProt C0P4K9); conditions: read-out: dTm B, sheet ZmDRIK1-R187-S514;; DSF, Boltzmann fit, 0.1% DMSO
T1 construct: gene ZEAMMB73_Zm00001d028770; ZmDRIK1-KD R187-S514 (kinase domain)
T1 sequence (C0P4K9 187-514): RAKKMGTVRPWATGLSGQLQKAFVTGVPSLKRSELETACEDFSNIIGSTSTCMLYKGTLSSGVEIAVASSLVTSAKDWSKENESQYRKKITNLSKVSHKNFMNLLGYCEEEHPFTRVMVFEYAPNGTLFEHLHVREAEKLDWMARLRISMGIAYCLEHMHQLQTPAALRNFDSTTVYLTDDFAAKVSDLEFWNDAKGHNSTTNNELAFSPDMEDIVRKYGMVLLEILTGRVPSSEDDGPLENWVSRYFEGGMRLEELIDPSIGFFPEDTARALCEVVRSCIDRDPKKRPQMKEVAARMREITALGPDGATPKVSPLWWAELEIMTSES

[2] = target: T2, ZmDRIK1-R187-P492 (Zea mays, UniProt C0P4K9); conditions: read-out: dTm B, DSF, Boltzmann fit, 0.1% DMSO
T2 construct: kinase domain, R187-P492
T2 sequence (C0P4K9 1-514): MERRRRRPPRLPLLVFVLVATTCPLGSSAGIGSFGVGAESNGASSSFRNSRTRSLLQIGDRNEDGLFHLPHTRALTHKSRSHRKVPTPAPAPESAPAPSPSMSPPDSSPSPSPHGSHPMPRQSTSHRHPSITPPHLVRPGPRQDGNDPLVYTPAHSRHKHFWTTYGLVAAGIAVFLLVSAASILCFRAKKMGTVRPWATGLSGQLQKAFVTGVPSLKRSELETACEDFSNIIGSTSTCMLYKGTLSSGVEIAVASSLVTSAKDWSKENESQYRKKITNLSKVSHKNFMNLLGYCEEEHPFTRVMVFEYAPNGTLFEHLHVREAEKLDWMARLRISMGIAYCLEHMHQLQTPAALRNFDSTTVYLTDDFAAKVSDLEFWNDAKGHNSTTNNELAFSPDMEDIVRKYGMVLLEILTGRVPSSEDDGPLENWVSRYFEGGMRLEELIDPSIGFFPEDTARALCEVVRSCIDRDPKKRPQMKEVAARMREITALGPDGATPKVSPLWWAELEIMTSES

[3] = target: T3, ZmDRIK1-K217-P492 (Zea mays, UniProt C0P4K9); conditions: read-out: dTm B, sheet ZmDRIK1-K217-P492;; DSF, Boltzmann fit, 0.1% DMSO
T3 construct: kinase domain, K217-P492
T3 sequence (C0P4K9 1-514): T2 sequence (C0P4K9 1-514)

[4] = target: T4, ZmDRIK1-K217-S514 (Zea mays, UniProt C0P4K9); conditions: read-out: dTm B, sheet ZmDRIK1-K217-S514;; DSF, Boltzmann fit, 0.1% DMSO
T4 construct: kinase domain, K217-S514
T4 sequence (C0P4K9 1-514): T2 sequence (C0P4K9 1-514)

## Cn1cc(-c2[nH]c3cc(NC(=O)[C@H](N)C4CCCCC4)cc4c3c2C=NNC4=O)cn1 [PF-477736]
[1]
  ΔTm at 10 µM: -0.63 °C
[2]
  ΔTm at 10 µM: -0.228 °C
[3]
  ΔTm at 10 µM: -1.09 °C
[4]
  ΔTm at 10 µM: -0.328 °C

## Cc1ccc([N+](=O)[O-])cc1S(=O)(=O)N(C)/N=C/c1cnc2ccc(Br)cn12 [PIK-75]
[1]
  ΔTm at 10 µM: -0.734 °C
[2]
  ΔTm at 10 µM: -0.296 °C
[3]
  ΔTm at 10 µM: -1.46 °C
[4]
  ΔTm at 10 µM: -0.221 °C

## Cn1cnc2c(F)c(Nc3ccc(Br)cc3F)c(C(=O)NOCCO)cc21 [MEK162 (ARRY-162)]
[1]
  ΔTm at 10 µM: -0.978 °C
[2]
  ΔTm at 10 µM: -0.189 °C
[3]
  ΔTm at 10 µM: -1.3 °C
[4]
  ΔTm at 10 µM: -0.461 °C

## COc1cc2nccc(Oc3ccc(NC(=O)Nc4cc(C)on4)c(Cl)c3)c2cc1OC [Tivozanib (AV-951)]
[1]
  ΔTm at 10 µM: -0.0903 °C
[2]
  ΔTm at 10 µM: -3.15 °C
[3]
  ΔTm at 10 µM: -3.26 °C
[4]
  ΔTm at 10 µM: -0.402 °C

## NC(=O)c1cnc(N[C@@H]2CCCC[C@@H]2N)nc1Nc1cccc(-n2nccn2)c1 [PRT062607 (P505-15)]
[1]
  ΔTm at 10 µM: -0.709 °C
[2]
  ΔTm at 10 µM: -0.212 °C
[3]
  ΔTm at 10 µM: -0.348 °C
[4]
  ΔTm at 10 µM: -0.551 °C

## Cc1[nH]c(/C=C2\C(=O)Nc3ccccc32)c(C)c1CCC(=O)O [TSU-68 (SU6668)]
[1]
  ΔTm at 10 µM: -0.64 °C
[2]
  ΔTm at 10 µM: -0.199 °C
[3]
  ΔTm at 10 µM: -1.14 °C
[4]
  ΔTm at 10 µM: -0.226 °C

## O=C(NC(NC(=S)Nc1ccc(F)c([N+](=O)[O-])c1)C(Cl)(Cl)Cl)C(c1ccccc1)c1ccccc1 (stereo not shown) [CGK 733]
[1]
  ΔTm at 10 µM: 0.221 °C
[2]
  ΔTm at 10 µM: 0.467 °C
[3]
  ΔTm at 10 µM: -1.46 °C
[4]
  ΔTm at 10 µM: 0.146 °C

## CO[C@H]1C[C@@H]2CC[C@@H](C)[C@@](O)(O2)C(=O)C(=O)N2CCCC[C@H]2C(=O)O[C@H]([C@H](C)C[C@@H]2CC[C@@H](OC(=O)C(C)(CO)CO)[C@H](OC)C2)CC(=O)[C@H](C)/C=C(\C)[C@@H](O)[C@@H](OC)C(=O)[C@H](C)C[C@H](C)/C=C/C=C/C=C/1C [Temsirolimus (CCI-779)]
[1]
  ΔTm at 10 µM: -2.07 °C
[2]
  ΔTm at 10 µM: -0.393 °C
[3]
  ΔTm at 10 µM: -1.36 °C
[4]
  ΔTm at 10 µM: -0.361 °C

## O=C(Nc1cccc(Nc2ncc(Br)c(NCCc3cnc[nH]3)n2)c1)N1CCCC1 [BX-912]
[1]
  ΔTm at 10 µM: -0.512 °C
[2]
  ΔTm at 10 µM: -0.165 °C
[3]
  ΔTm at 10 µM: -0.986 °C
[4]
  ΔTm at 10 µM: -0.277 °C

## C[C@@H](Oc1cc(-n2cnc3ccc(CN4CCN(C)CC4)cc32)sc1C(N)=O)c1ccccc1C(F)(F)F [GSK461364]
[1]
  ΔTm at 10 µM: -1.05 °C
[2]
  ΔTm at 10 µM: -0.19 °C
[3]
  ΔTm at 10 µM: -0.796 °C
[4]
  ΔTm at 10 µM: -0.15 °C

## NC(=O)c1ccc(N(C(N)=O)c2c(F)cccc2F)nc1-c1ccc(F)cc1F [VX-702]
[1]
  ΔTm at 10 µM: -0.444 °C
[2]
  ΔTm at 10 µM: -0.499 °C
[3]
  ΔTm at 10 µM: -0.792 °C
[4]
  ΔTm at 10 µM: -0.374 °C

## CSc1cccc(Nc2ncc3cc(-c4c(Cl)cccc4Cl)c(=O)n(C)c3n2)c1 [PD173955]
[1]
  ΔTm at 10 µM: -1.36 °C
[2]
  ΔTm at 10 µM: -0.72 °C
[3]
  ΔTm at 10 µM: -2.14 °C
[4]
  ΔTm at 10 µM: -0.595 °C

## CCn1c(N)c(C(=O)NC)c(=O)c2ccc(C#C[C@@](C)(O)COC)nc21 [SAR131675]
[1]
  ΔTm at 10 µM: -0.688 °C
[2]
  ΔTm at 10 µM: -0.181 °C
[3]
  ΔTm at 10 µM: -0.827 °C
[4]
  ΔTm at 10 µM: -0.272 °C

## CCS(=O)(=O)c1cccc(-c2cc(C(=O)NC3CCN(C)CC3)c(C)c3[nH]c4ncc(C)cc4c23)c1 [TAK-901]
[1]
  ΔTm at 10 µM: -0.544 °C
[2]
  ΔTm at 10 µM: -0.0329 °C
[3]
  ΔTm at 10 µM: -0.353 °C
[4]
  ΔTm at 10 µM: -0.0934 °C

## CCOC(=O)c1cnc2ccc(-c3cncc(NS(=O)(=O)c4ccccc4)c3)cn12 [HS-173]
[1]
  ΔTm at 10 µM: -0.566 °C
[2]
  ΔTm at 10 µM: -0.247 °C
[3]
  ΔTm at 10 µM: -0.326 °C
[4]
  ΔTm at 10 µM: -0.361 °C

## O=c1cc(N2CCOCC2)oc2c(-c3cccc4c3sc3ccccc34)cccc12 [NU7441 (KU-57788)]
[1]
  ΔTm at 10 µM: -0.875 °C
[2]
  ΔTm at 10 µM: -0.309 °C
[3]
  ΔTm at 10 µM: -1.94 °C
[4]
  ΔTm at 10 µM: -1.59 °C

## CNc1nc(Nc2cn(C(C)(C)C#N)nc2C)ncc1C(F)(F)F [GNE-0877]
[1]
  ΔTm at 10 µM: -0.833 °C
[2]
  ΔTm at 10 µM: -0.575 °C
[3]
  ΔTm at 10 µM: -0.848 °C
[4]
  ΔTm at 10 µM: -0.602 °C

## O=C(NC[C@H](O)CO)c1ccncc1Nc1ccc(I)cc1F [Pimasertib (AS-703026)]
[1]
  ΔTm at 10 µM: -0.651 °C
[2]
  ΔTm at 10 µM: -0.33 °C
[3]
  ΔTm at 10 µM: -0.841 °C
[4]
  ΔTm at 10 µM: -0.594 °C

## NC(=O)c1ncn([C@@H]2O[C@H](CO)[C@@H](O)[C@H]2O)c1N [Acadesine]
[1]
  ΔTm at 10 µM: -0.564 °C
[2]
  ΔTm at 10 µM: -0.0339 °C
[3]
  ΔTm at 10 µM: -0.691 °C
[4]
  ΔTm at 10 µM: -0.387 °C

## Cc1cc(Nc2cc(CN3CCOCC3)c3nc(C)c(Cc4ccc(Cl)cc4F)n3n2)n[nH]1 [LY2784544]
[1]
  ΔTm at 10 µM: -0.894 °C
[2]
  ΔTm at 10 µM: -0.165 °C
[3]
  ΔTm at 10 µM: -0.85 °C
[4]
  ΔTm at 10 µM: -0.0976 °C

## COc1ccc2c(Oc3ccc(NC(=O)c4c(C)n(CC(C)(C)O)n(-c5ccccc5)c4=O)nc3)ccnc2c1 [AMG-458]
[1]
  ΔTm at 10 µM: -0.675 °C
[2]
  ΔTm at 10 µM: -0.312 °C
[3]
  ΔTm at 10 µM: -0.94 °C
[4]
  ΔTm at 10 µM: -0.329 °C

## C[C@H]1[C@H](C)CC[C@]2(C(=O)O)CC[C@]3(C)C(=CC[C@@H]4[C@@]5(C)C[C@@H](O)[C@H](O)[C@@](C)(CO)[C@@H]5CC[C@]43C)[C@H]12 [Asiatic Acid]
[1]
  ΔTm at 10 µM: -0.753 °C
[2]
  ΔTm at 10 µM: -0.41 °C
[3]
  ΔTm at 10 µM: -1.33 °C
[4]
  ΔTm at 10 µM: -0.368 °C

## CNC(=O)c1ccccc1Sc1ccc2c(/C=C/c3ccccn3)n[nH]c2c1 [Axitinib]
[1]
  ΔTm at 10 µM: -0.702 °C
[2]
  ΔTm at 10 µM: -0.367 °C
[3]
  ΔTm at 10 µM: -1.24 °C
[4]
  ΔTm at 10 µM: -0.335 °C

## Cc1nc(NC(=O)N2CCC[C@H]2C(N)=O)sc1-c1csc(C(C)(C)C)n1 [A66]
[1]
  ΔTm at 10 µM: -0.746 °C
[2]
  ΔTm at 10 µM: -0.295 °C
[3]
  ΔTm at 10 µM: -0.988 °C
[4]
  ΔTm at 10 µM: -0.323 °C

## C=CC(=O)Nc1cccc(Nc2nc(Nc3ccc(N4CCN(C(C)=O)CC4)cc3OC)ncc2C(F)(F)F)c1 [CO-1686 (AVL-301)]
[1]
  ΔTm at 10 µM: -0.884 °C
[2]
  ΔTm at 10 µM: -0.278 °C
[3]
  ΔTm at 10 µM: -0.85 °C
[4]
  ΔTm at 10 µM: -0.448 °C

## Nc1cc(C(F)(F)F)c(-c2cc(N3CCOCC3)nc(N3CCOCC3)n2)cn1 [BKM120 (NVP-BKM120)]
[1]
  ΔTm at 10 µM: -0.731 °C
[2]
  ΔTm at 10 µM: -0.326 °C
[3]
  ΔTm at 10 µM: -1.39 °C
[4]
  ΔTm at 10 µM: -0.33 °C

## CN1CCN(c2ccc(OC(F)(F)F)c(Nc3ncc4c(n3)-c3c(c(C(N)=O)nn3CCO)CC4)c2)CC1 [NMS-P937 (NMS1286937)]
[1]
  ΔTm at 10 µM: -1.15 °C
[2]
  ΔTm at 10 µM: -0.749 °C
[3]
  ΔTm at 10 µM: -1.1 °C
[4]
  ΔTm at 10 µM: -0.517 °C

## CO[C@H]1C[C@@H]2CC[C@@H](C)[C@@](O)(O2)C(=O)C(=O)N2CCCC[C@H]2C(=O)O[C@H]([C@H](C)C[C@@H]2CC[C@@H](OP(C)(C)=O)[C@H](OC)C2)CC(=O)[C@H](C)/C=C(\C)[C@@H](O)[C@@H](OC)C(=O)[C@H](C)C[C@H](C)/C=C/C=C/C=C/1C [Ridaforolimus (Deforolimus)]
[1]
  ΔTm at 10 µM: -0.675 °C
[2]
  ΔTm at 10 µM: -0.365 °C
[3]
  ΔTm at 10 µM: -1.84 °C
[4]
  ΔTm at 10 µM: -0.213 °C
